target: Hepatitis C virus NS3 helicase; experiment: IC50 of HCV NS3 unwinding blockers – biochemical, fluorescence, dose response, late-stage follow-up (AID 2474); details: recombinant NS3 helicase, fluorescence unwinding assay

Row | Compound | IC50 [nM]
1 | COc1ccc(C=NNC(=O)c2cc(O)c(O)c(O)c2)cc1COc1ccc(C(=O)OCC(C)C)cc1 | 9370
2 | Cc1ccc(C(=O)C2=C(O)C(=O)N(Cc3ccco3)C2c2cccc(Cl)c2)o1 (configuration not stated) | 6590
3 | CCCCCOc1ccc(C2C(C(=O)c3ccc(C)o3)=C(O)C(=O)N2c2cc(C)on2)cc1 (configuration not stated) | 1810
4 | CCOc1cccc(C2C(C(=O)c3ccc(C)o3)=C(O)C(=O)N2Cc2ccccc2)c1 (configuration not stated) | 5290

Further molecules by falling IC50, results first:

Row | IC50 [nM] | Compound
5 | 2880 | COc1cccc(-n2c(SCc3cc(=O)oc4cc(O)c(O)cc34)nc3ccccc3c2=O)c1
6 | 1630 | COc1cc(C2C(C(=O)c3ccc(C)o3)=C(O)C(=O)N2c2cc(C)on2)ccc1OCc1ccccc1 (configuration not stated)
7 | 1470 | Cc1cc(N2C(=O)C(O)=C(C(=O)c3ccc(C)o3)C2c2ccc(OCc3ccccc3)cc2)no1 (configuration not stated)

— PubChem BioAssay AID2474 (The Scripps Research Institute Molecular Screening Center, 2010)
